Experimental data: patent US11141413B2, “Method of treating renal cell carcinoma using N-(4-(6,7-dimethoxyquinolin-4-yloxy)phenyl)-N′-(4-fluorophenyl)cyclopropane-1,1-dicarboxamide, (2S)-hydroxybutanedioate” (Exelixis, Inc., priority 2016, dated 2021)

System: patients with advanced renal cell carcinoma
Conditions: in vivo
Protocol: Treatment modifications, including interruptions and dose reductions, were allowed to manage adverse events. […] Patients were allowed to continue study treatment beyond radiographic progression at the discretion of the investigator. On-study crossover between treatment groups was not permitted. Safety evaluations, including physical examination, vital signs, and laboratory assessments, were conducted every 2 weeks for the first 8 weeks and then every 4 weeks thereafter. ECG assessments were performed every 4 weeks for the first 8 weeks and then every 12 weeks. A safety follow-up visit was scheduled 30 days after treatment discontinuation. Adverse events were assessed by investigators and graded according to CTCAE version 4.0.
Safety analyses were limited to patients who received any amount of study treatment.

SMILES: CO[C@H]1C[C@@H]2CC[C@@H](C)[C@@](O)(O2)C(=O)C(=O)N2CCCC[C@H]2C(=O)O[C@H]([C@H](C)C[C@@H]2CC[C@@H](OCCO)[C@H](OC)C2)CC(=O)[C@H](C)/C=C(\C)[C@@H](O)[C@@H](OC)C(=O)[C@H](C)C[C@H](C)/C=C/C=C/C=C/1C [everolimus]
- ALP increased, All Grades (human): 29%
- ALP increased, Grade 3-4 (human): 1%
- ALT increased, All Grades (human): 32%
- ALT increased, Grade 3-4 (human): <1%
- AST increased, All Grades (human): 40%
- AST increased, Grade 3-4 (human): <1%
- Abdominal pain, All Grades (human): 13%
- Abdominal pain, Grade 1-2 (human): 27 (8) n (%)
- Abdominal pain, Grade 3 (human): 5 (2) n (%)
- Abdominal pain, Grade 3-4 (human): 2%
- Abdominal pain, Grade 4 (human): 0 n (%)
- Absolute neutrophil count decreased, All Grades (human): 17%
- Absolute neutrophil count decreased, Grade 3-4 (human): <1%
- Adverse reactions led to study treatment being held (human): 59%
- Adverse reactions led to study treatment discontinuation (human): 10%
- Alanine aminotransferase increased, Grade 1-2 (human): 20 (6) n (%)
- Alanine aminotransferase increased, Grade 3 (human): 1 (<1) n (%)
- Alanine aminotransferase increased, Grade 4 (human): 0 n (%)
- Anemia, All Grades (human): 38%
- Anemia, Grade 1-2 (human): 73 (23) n (%)
- Anemia, Grade 3 (human): 53 (17) n (%)
- Anemia, Grade 3-4 (human): 16%
- Anemia, Grade 4 (human): 0 n (%)
- Anemia, all grades (human): 126 (39%) n (%)
- Anemia, grade 3 or 4 (human): 53 [17%] n [%]
- Any AE, Grade 1-2 (human): 103 (32) n (%)
- Any AE, Grade 3 (human): 167 (52) n (%)
- Any AE, Grade 4 (human): 26 (8) n (%)
- Arthralgia, All Grades (human): 14%
- Arthralgia, Grade 1-2 (human): 46 (14) n (%)
- Arthralgia, Grade 3 (human): 4 (1) n (%)
- Arthralgia, Grade 3-4 (human): 1%
- Arthralgia, Grade 4 (human): 0 n (%)
- Aspartate aminotransferase increased, Grade 1-2 (human): 19 (6) n (%)
- Aspartate aminotransferase increased, Grade 3 (human): 1 (<1) n (%)
- Aspartate aminotransferase increased, Grade 4 (human): 0 n (%)
- Asthenia, All Grades (human): 16%
- Asthenia, Grade 1-2 (human): 46 (14) n (%)
- Asthenia, Grade 3 (human): 8 (3) n (%)
- Asthenia, Grade 3-4 (human): 2%
- Asthenia, Grade 4 (human): 0 n (%)
- Back pain, Grade 1-2 (human): 41 (13) n (%)
- Back pain, Grade 3 (human): 7 (2) n (%)
- Back pain, Grade 4 (human): 0 n (%)
- Blood creatinine increased, Grade 1-2 (human): 39 (12) n (%)
- Blood creatinine increased, Grade 3 (human): 0 n (%)
- Blood creatinine increased, Grade 4 (human): 0 n (%)
- Constipation, All Grades (human): 19%
- Constipation, Grade 1-2 (human): 64 (20) n (%)
- Constipation, Grade 3 (human): 1 (<1) n (%)
- Constipation, Grade 3-4 (human): <1%
- Constipation, Grade 4 (human): 0 n (%)
- Cough, All Grades (human): 33%
- Cough, Grade 1-2 (human): 107 (33) n (%)
- Cough, Grade 3 (human): 3 (<1) n (%)
- Cough, Grade 3-4 (human): <1%
- Cough, Grade 4 (human): 0 n (%)
- Creatinine increased, All Grades (human): 71%
- Creatinine increased, Grade 3-4 (human): 0%
- Decreased appetite, All Grades (human): 34%
- Decreased appetite, Grade 1-2 (human): 111 (35) n (%)
- Decreased appetite, Grade 3 (human): 3 (<1) n (%)
- Decreased appetite, Grade 3-4 (human): <1%
- Decreased appetite, Grade 4 (human): 0 n (%)
- Decreased appetite, all grades (human): 114 (3-5%) n (%)
- Diarrhea, All Grades (human): 28%
- Diarrhea, Grade 1-2 (human): 85 (26) n (%)
- Diarrhea, Grade 3 (human): 7 (2) n (%)
- Diarrhea, Grade 3-4 (human): 2%
- Diarrhea, Grade 4 (human): 0 n (%)
- Discontinuation due to a primary reason of AE (excluding disease progression) (human): 10%
- Dizziness, All Grades (human): 7%
- Dizziness, Grade 1-2 (human): 21 (7) n (%)
- Dizziness, Grade 3 (human): 0 n (%)
- Dizziness, Grade 3-4 (human): 0%
- Dizziness, Grade 4 (human): 0 n (%)
- Dry skin, All Grades (human): 10%
- Dry skin, Grade 1-2 (human): 35 (11) n (%)
- Dry skin, Grade 3 (human): 0 n (%)
- Dry skin, Grade 3-4 (human): 0%
- Dry skin, Grade 4 (human): 0 n (%)
- Dysgeusia, All Grades (human): 9%
- Dysgeusia, Grade 1-2 (human): 30 (9) n (%)
- Dysgeusia, Grade 3 (human): 0 n (%)
- Dysgeusia, Grade 3-4 (human): 0%
- Dysgeusia, Grade 4 (human): 0 n (%)
- Dyspepsia, All Grades (human): 5%
- Dyspepsia, Grade 1-2 (human): 15 (5) n (%)
- Dyspepsia, Grade 3 (human): 0 n (%)
- Dyspepsia, Grade 3-4 (human): 0%
- Dyspepsia, Grade 4 (human): 0 n (%)
- Dysphonia, All Grades (human): 4%
- Dysphonia, Grade 1-2 (human): 16 (5) n (%)
- Dysphonia, Grade 3 (human): 0 n (%)
- Dysphonia, Grade 3-4 (human): 0%
- Dysphonia, Grade 4 (human): 0 n (%)
- Dyspnea, All Grades (human): 29%
- Dyspnea, Grade 3-4 (human): 4%
- Dyspnoea, Grade 1-2 (human): 82 (26) n (%)
- Dyspnoea, Grade 3 (human): 11 (3) n (%)
- Dyspnoea, Grade 4 (human): 3 (<1) n (%)
- Edema peripheral, Grade 1-2 (human): 70 (22) n (%)
- Edema peripheral, Grade 3 (human): 6 (2) n (%)
- Edema peripheral, Grade 4 (human): 0 n (%)
- Epistaxis, Grade 1-2 (human): 46 (14) n (%)
- Epistaxis, Grade 3 (human): 0 n (%)
- Epistaxis, Grade 4 (human): 0 n (%)
- Events of arterial thromboembolism (human): 0.3%
- Fatigue, All Grades (human): 47%
- Fatigue, Grade 1-2 (human): 130 (40) n (%)
- Fatigue, Grade 3 (human): 24 (8) n (%)
- Fatigue, Grade 3-4 (human): 7%
- Fatigue, Grade 4 (human): 0 n (%)
- Fatigue, all grades (human): 154 (48%) n (%)
- Fatigue, grade 3 or 4 (human): 24 [7%] n [%]
- Fistulas (human): 0%
- Flatulence, Grade 1-2 (human): 7 (2) n (%)
- Flatulence, Grade 3 (human): 0 n (%)
- Flatulence, Grade 4 (human): 0 n (%)
- GGT increased, All Grades (human): 43%
- GGT increased, Grade 3-4 (human): 9%
- Gastrointestinal (GI) perforations (human): 0.6%
- Grade 3 and 4 adverse events: Diarrhea, % (human): 3%
- Grade 3 or 4 Adverse Events: Diarrhea, % (human): (3) %
- Grade 3 or 4 Adverse Events: Hypokalaemia, % (human): (2) %
- Grade 3 or 4 Adverse Events: PPES, % (human): (1) %
- Grade 3 or 4 adverse events (human): 193 (60%) n (%)
- Grade 5 adverse events regardless of causality (human): 7.8%
- Headache, All Grades (human): 12%
- Headache, Grade 1-2 (human): 42 (13) n (%)
- Headache, Grade 3 (human): 1 (<1) n (%)
- Headache, Grade 3-4 (human): <1%
- Headache, Grade 4 (human): 0 n (%)
- Hemoglobin decreased, All Grades (human): 71%
- Hemoglobin decreased, Grade 3-4 (human): 17%
- Hyperglycemia, All Grades (human): 59%
- Hyperglycemia, Grade 1-2 (human): 46 (14) n (%)
- Hyperglycemia, Grade 3 (human): 16 (5) n (%)
- Hyperglycemia, Grade 3-4 (human): 8%
- Hyperglycemia, Grade 4 (human): 0 n (%)
- Hyperglycemia, grade 3 or 4 (human): 16 [5%] n [%]
- Hypertension, All Grades (human): 8%
- Hypertension, Grade 1-2 (human): 14 (4) n (%)
- Hypertension, Grade 3 (human): 12 (4) n (%)
- Hypertension, Grade 3-4 (human): 3%
- Hypertension, Grade 4 (human): 0 n (%)
- Hypertriglyceridemia, Grade 1-2 (human): 31 (10) n (%)
- Hypertriglyceridemia, Grade 3 (human): 7 (2) n (%)
- Hypertriglyceridemia, Grade 4 (human): 3 (<1) n (%)
- Hypoalbuminemia, All Grades (human): 28%
- Hypoalbuminemia, Grade 3-4 (human): <1%
- Hypomagnesaemia, Grade 1-2 (human): 5 (2) n (%)
- Hypomagnesaemia, Grade 3 (human): 0 n (%)
- Hypomagnesaemia, Grade 4 (human): 0 n (%)
- Hypomagnesemia, All Grades (human): 4%
- Hypomagnesemia, Grade 3-4 (human): <1%
- Hyponatremia, All Grades (human): 26%
- Hyponatremia, Grade 3-4 (human): 6%
- Hypophosphatemia, All Grades (human): 36%
- Hypophosphatemia, Grade 3-4 (human): 5%
- Hypothyroidism, All Grades (human): <1%
- Hypothyroidism, Grade 1-2 (human): 1 (<1) n (%)
- Hypothyroidism, Grade 3 (human): 1 (<1) n (%)
- Hypothyroidism, Grade 3-4 (human): <1%
- Hypothyroidism, Grade 4 (human): 0 n (%)
- Incidence of Grade ≥3 hemorrhagic events (human): 1.6%
- Insomnia, Grade 1-2 (human): 33 (10) n (%)
- Insomnia, Grade 3 (human): 1 (<1) n (%)
- Insomnia, Grade 4 (human): 0 n (%)
- Lymphocytes decreased, All Grades (human): 39%
- Lymphocytes decreased, Grade 3-4 (human): 12%
- Mucosal inflammation, All Grades (human): 23%
- Mucosal inflammation, Grade 1-2 (human): 64 (20) n (%)
- Mucosal inflammation, Grade 3 (human): 10 (3) n (%)
- Mucosal inflammation, Grade 3-4 (human): 3%
- Mucosal inflammation, Grade 4 (human): 1 (<1) n (%)
- Muscle spasms, All Grades (human): 5%
- Muscle spasms, Grade 1-2 (human): 17 (5) n (%)
- Muscle spasms, Grade 3 (human): 0 n (%)
- Muscle spasms, Grade 3-4 (human): 0%
- Muscle spasms, Grade 4 (human): 0 n (%)
- Nausea, All Grades (human): 28%
- Nausea, Grade 1-2 (human): 92 (29) n (%)
- Nausea, Grade 3 (human): 1 (<1) n (%)
- Nausea, Grade 3-4 (human): <1%
- Nausea, Grade 4 (human): 0 n (%)
- Overall incidence of adverse events regardless of causality (human): > 99%
- Pain in extremity, All Grades (human): 8%
- Pain in extremity, Grade 1-2 (human): 31 (10) n (%)
- Pain in extremity, Grade 3 (human): 1 (<1) n (%)
- Pain in extremity, Grade 3-4 (human): <1%
- Pain in extremity, Grade 4 (human): 0 n (%)
- Palmar-plantar erythrodysaesthesia syndrome, Grade 1-2 (human): 16 (5) n (%)
- Palmar-plantar erythrodysaesthesia syndrome, Grade 3 (human): 3 (<1) n (%)
- Palmar-plantar erythrodysaesthesia syndrome, Grade 4 (human): 0 n (%)
- Palmar-plantar erythrodysesthesia syndrome, All Grades (human): 6%
- Palmar-plantar erythrodysesthesia syndrome, Grade 3-4 (human): <1%
- Patients with dose reduced (human): 24%
- Patients with dose reductions (human): 25%
- Platelets decreased, All Grades (human): 27%
- Platelets decreased, Grade 3-4 (human): <1%
- Proteinuria, All Grades (human): 9%
- Proteinuria, Grade 1-2 (human): 28 (9) n (%)
- Proteinuria, Grade 3 (human): 2 (<1) n (%)
- Proteinuria, Grade 3-4 (human): <1%
- Proteinuria, Grade 4 (human): 0 n (%)
- Pruritus, Grade 1-2 (human): 48 (15) n (%)
- Pruritus, Grade 3 (human): 1 (<1) n (%)
- Pruritus, Grade 4 (human): 0 n (%)
- Pulmonary embolism (human): 0.3%
- Pyrexia, Grade 1-2 (human): 57 (18) n (%)
- Pyrexia, Grade 3 (human): 2 (<1) n (%)
- Pyrexia, Grade 4 (human): 0 n (%)
- Rash, All Grades (human): 43%
- Rash, Grade 1-2 (human): 92 (29) n (%)
- Rash, Grade 3 (human): 2 (<1) n (%)
- Rash, Grade 3-4 (human): <1%
- Rash, Grade 4 (human): 0 n (%)
- Serious adverse events ≥grade 3 (human): 129 (40%) n (%)
- Stomatitis, All Grades (human): 24%
- Stomatitis, Grade 1-2 (human): 71 (22) n (%)
- Stomatitis, Grade 3 (human): 7 (2) n (%)
- Stomatitis, Grade 3-4 (human): 2%
- Stomatitis, Grade 4 (human): 0 n (%)
- Study treatment discontinuation due to diarrhea (human): 0.9%
- Treatment discontinuation due to an adverse event not related to disease progression (human): 10%
- Treatment-emergent hypertension (human): 7.1%
- Treatment-emergent hypertension, Grade ≥3 (human): 3.1%
- Triglycerides increased, All Grades (human): 73%
- Triglycerides increased, Grade 3-4 (human): 13%
- Venous thromboembolism (human): 2.5%
- Vomiting, All Grades (human): 14%
- Vomiting, Grade 1-2 (human): 44 (14) n (%)
- Vomiting, Grade 3 (human): 3 (<1) n (%)
- Vomiting, Grade 3-4 (human): <1%
- Vomiting, Grade 4 (human): 0 n (%)
- Weight decreased, All Grades (human): 12%
- Weight decreased, Grade 1-2 (human): 42(13) n (%)
- Weight decreased, Grade 3 (human): 0 n (%)
- Weight decreased, Grade 3-4 (human): 0%
- Weight decreased, Grade 4 (human): 0 n (%)
- White blood cells decreased, All Grades (human): 31%
- White blood cells decreased, Grade 3-4 (human): <1%
- Grade 5 adverse events assessed as treatment-related: two
